# Data from US8524277B2, “Extended release dosage form” (Alza Corporation, priority 1998, dated 2013).
# Assay type: physicochemical
# Description: Hydrophilic materials for use in forming the interior wall which have solubilities sensitive to osmotic pressure or to ionic strength can be screened experimentally prior to formulating them within the interior wall. This procedure involves forming an aqueous solution of the candidate hydrophilic materials using distilled water as the solvent. Then, the resulting solution is cast onto a smooth inert surface, such as a glass plate, and allowed to dry to a film. The film is then removed and cut into sections of known area, thickness, and weight. The resulting film samples are then placed in a series of reference solutions of various osmotic pressures or ionic strengths with mild stirring. The time required for the film to dissolve, t, is then measured as a function of osmotic pressure or ionic strength. Then, given the known values of initial film thickness, hi, the dissolution rate of the film, dh/dt, can be calculated according to Equation 5. […]
# The solubility of various hydrophilic materials to osmotic pressure was evaluated. […] Thicknesses of the discs were measured with a table micrometer. […] The time to dissolution was then monitored for each sample. Dissolution rate was calculated according to Equation 5 and plotted as a function of osmotic pressure for each molecular weight. […]
substance,measurement,value
hydroxypropylcellulose [Klucel EF],osmotic pressure at which the film is insoluble,above 30 atmospheres
same,osmotic pressure at which the film is soluble,0-30 atmospheres
